# In US12042492B2 (priority 2020, dated 2024):
# Entries after “also recorded” stand apart in the source; their conditions may differ.
# Tests used:
# [1] = tested on: mAPP transfected N2a cells; assay: Cell viability / apoptotic cell death in mAPP transfected N2a cells; type: cell-based, mouse
# Experimental: (§1) The N2a cells grown for 6 days in a serum-free medium (1:1 mixture of DMEM and OptiMEM, plus penicillin and streptomycin (Invitrogen, Carlsbad, CA, USA) until the cells developed neuronal processes. As shown in (FIG. 10), these cells were used for 4 groups—one control group and 3 treatment groups. 1) untreated N2a cells (the control group), 2) N2a cells treated with ligand 1 (N2a+ligand 1), 3) N2a cells transfected mAPP with the (lipofectamine) (20 μM final concentration for 6 hrs (mAPP), 4) N2a cells transfected with mAPP cDNA for 6 hrs, treated with ligand 1 (mAPP+ligand 1 treatment group), N2a cells treated with ligand 1 for 24 hrs and then treated with the mAPP cDNA for 6 hrs (ligand 1+mAPP treatment group). As shown in (FIG. 10), the inventors performed 4 independent cell cultures and treatments for all experiments (n=4).
# Cell viability and apoptotic cell death MTT assay. Ligand 1 treated N2a cells, cell based apoptosis assay was performed using Cellometer Vision CBA Image Cytometry System (Nexcelom Bioscience LLC, Lawrence, MA) with two fluorophore Annexin V-FITC and Propidium Iodide (PI) staining solution, according to manufacturer's instructions. Briefly, cells were harvested using trypsin, then spin down at 300 g for three minutes and pellets were washed with 1×PBS, cells were counted using hematocytometer. […]
# [2] = tested on: Aβ40 and Aβ42 levels in mAPP N2a cells; assay: Sandwich ELISA of soluble Aβ40 and Aβ42 levels in mAPP N2a cells; type: cell-based, mouse; conditions: ligand 1-treated mAPP N2a cells vs untreated mAPP cells
# Excerpt: (§2) ELISA Ligand based inhibition of BACE1 activity, Aβ 40 and 42. BACE1 activity, Levels of Aβ40 and 42. To determine whether ligand 1 lowers BACE1 activity and reducing the Aβ40 and Aβ42 levels, the inventors measured BACE1 activity, Aβ40 and Aβ42 levels in mutant APP cells (N2a+mutant cDNA transfected) treated with ligand 1 using Sandwich ELISA.
# as §1, with “As shown in (FIG. 10), the inventors performed 4 independent cell cultures and treatments for all experiments (n=4).” left out
# (§3) ELISA Ligand based BACE1 inhibition of Aβ 40 and 42. […] For each sample, Aβ1-40 and Aβ1-42 were measured with commercial colorimetric ELISA kits (Biosource International, Camarillo, CA, USA) specific for human. […] Protein concentrations of the homogenates were determined following the […], and Aβ was expressed as pg Aβ/mg protein.
# [3] = target: T1, BACE1 (Mus musculus, UniProt P56818); assay: Sandwich ELISA of BACE1 activity in mAPP N2a cells; type: cell-based; conditions: mAPP cells treated with ligand 1 relative to untreated mAPP cells; P=0.001
# T1 construct: endogenous in cells; host or cells: N2a mouse neuroblastoma cells (ATCC) transfected with mutant APP Swe/Ind cDNA
# Excerpt: as §2
# as §1, with “As shown in (FIG. 10), the inventors performed 4 independent cell cultures and treatments for all experiments (n=4).” left out
# as §3
# [4] = tested on: N2a cells; assay: Transmission electron microscopy of mitochondrial number and length; type: cell-based, mouse; conditions: TEM
# Excerpt: Transmission electron microscopy. To determine the effects of ligand 1 on the number and length of mitochondria, the inventors used transmission electron microscopy on cells with untreated N2a cells, […], mAPP, and mAPP+ligand 1.
# Transmission electron microscopy of mitochondria. To determine the protective effects ligand 1 the number and morphology of mitochondria and the rescue effects of Ligand 1, on Aβ induced mitochondrial toxicity. The inventors conducted transmission electron microscopy (TEM) of N2a cells from control and experimental treatments (n=4). Treated and untreated N2a cells were fixed in 100 mM sodium cacodylate (pH 7.2), 2.5% glutaraldehyde, 1.6% paraformaldehyde, 0.064% picric acid, and 0.1% ruthenium red. They were gently washed and post-fixed for 1 hr in 1% osmium tetroxide plus […] potassium ferricyanide, in 100 mM sodium cacodylate, pH 7.2. After a thorough rinsing in water, the N2a cells were dehydrated, infiltrated overnight in 1:1 acetone:Epon 812, infiltrated for 1 hr with 100% Epon 812 resin, and embedded in the resin. After polymerization, 60- to 80-nm thin sections were cut on a Reichert ultramicrotome and stained for 5 min in lead citrate. […] The numbers of mitochondria were counted in the control N2a cells (number of cells=50) and experimental groups (number of cells per group=40), and statistical significance was determined, using one-way ANOVA.
# [5] = tested on: mAPP N2a cells; assay: Immunofluorescence analysis of BACE1, 6E10 and CTF; type: cell-based, mouse; conditions: ligand 1-treated mAPP N2a cells relative to untreated mAPP N2a cells, P=0.01
# Experimental: Immunofluorescence analysis of BACE1, 6E10 and CTF. To determine the effect of ligand 1 on BACE1, 6E10 and C-terminal fragments, immunofluorescence analysis was performed on four different groups of cells: 1) untreated N2a cells versus; 2) N2a+ligand 1; 3); cells transfected with mAPP and 4) mAPP+ligand 1.
# Immunofluorescence analysis of BACE1, 6E10 and CTF. To determine BACE1, 6E10, CTF inhibition, mitochondrial network, immunofluorescence analysis was performed using mutant AβPP cells and untransfected N2a and TOM20 antibody as described in (35). The fixed cells were washed with warm PBS, fixed in freshly prepared 4% paraformaldehyde in PBS for 10 minutes, then washed with PBS and permeabilized with 0.1% Triton-X100 in PBS. They were blocked with a 1% blocking solution (Invitrogen) for 1 hour at room temperature. All sections were incubated overnight with TOM20 antibody (1:250 dilution). After incubation, the cells were washed 3 times with PBS, for 10 minutes each. The cells were incubated with a secondary antibody conjugated with Fluor 488 (Invitrogen) for 1 hour at room temperature. The cells were washed 3 times with PBS and mounted on slides. Photographs were taken with a multiphoton laser scanning microscope system (ZeissMeta LSM510). To quantify the immunoreactivity of TOM20 antibody for each treatment, 10-15 photographs were taken at ×40 magnifications, and statistical significance was assessed, using one-way ANOVA for TOM20 protein.
# T1 sequence (P56818 46-501): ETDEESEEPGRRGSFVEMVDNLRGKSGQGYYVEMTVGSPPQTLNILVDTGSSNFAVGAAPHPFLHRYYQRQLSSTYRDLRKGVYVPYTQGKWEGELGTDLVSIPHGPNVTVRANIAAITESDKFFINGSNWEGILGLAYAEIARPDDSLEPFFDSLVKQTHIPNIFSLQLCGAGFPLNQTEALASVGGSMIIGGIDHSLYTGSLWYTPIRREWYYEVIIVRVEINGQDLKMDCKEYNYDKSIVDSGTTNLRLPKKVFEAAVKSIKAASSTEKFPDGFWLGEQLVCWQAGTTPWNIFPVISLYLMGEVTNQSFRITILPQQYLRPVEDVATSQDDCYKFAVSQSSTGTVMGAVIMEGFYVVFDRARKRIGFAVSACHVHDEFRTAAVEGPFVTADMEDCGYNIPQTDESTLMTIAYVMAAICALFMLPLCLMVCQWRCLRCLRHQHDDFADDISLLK
substance,measurement,setting,value
"[(6As,8S,10aS,12aS)-10a, 12a-dimethyl-2-oxo-3,4,4a,4b,5,6,6a,7,8,9,10,10b,11,12-tetradecahydro-1H-naphtho[2,1-f]quinolin-8-yl] 4-[4-[bis(2-chloroethyl)amino]phenyl]butanoate [Ligand 1]",Apoptotic cell death,[1]; mAPP transfected cells,reduced
same,Cell viability,"[1]; mAPP+ligand 1 compared to mAPP cells, P=0.181",not significantly increased
same,Aβ42 level,[2]; P=0.005,significantly lower; also recorded: reduced
same,Aβ40 level,"[2]; soluble, P=0.01",decreased; also recorded: reduced
same,BACE1 activity,[3],significantly lower; also recorded: significantly reduced
same,Mitochondrial length,[4]; cells treated with ligand 1 relative to untreated cells,significantly increased
same,Number of mitochondria,"[4]; mAPP+ligand 1 vs mAPP cells, P=0.01",reduced
same,6E10 immunoreactivity (mutant APP and Aβ),[5],significantly lower; also recorded: significantly reduced
same,BACE1 immunoreactivity,[5],significantly lower; also recorded: significantly reduced
same,C-terminal fragment (CTF) immunoreactivity,[5],significantly lower; also recorded: significantly reduced
